# Measurements from patent US8822449B2, “Substituted aminoindanes and analogs thereof, and the pharmaceutical use thereof” (Sanofi, priority 2008, dated 2014).
# Target: T1, sodium-proton exchanger of subtype 3 (NHE3) (Homo sapiens, UniProt P48764)
# T1 construct: expressed in transfected cells
# T1 sequence (P48764 26-834): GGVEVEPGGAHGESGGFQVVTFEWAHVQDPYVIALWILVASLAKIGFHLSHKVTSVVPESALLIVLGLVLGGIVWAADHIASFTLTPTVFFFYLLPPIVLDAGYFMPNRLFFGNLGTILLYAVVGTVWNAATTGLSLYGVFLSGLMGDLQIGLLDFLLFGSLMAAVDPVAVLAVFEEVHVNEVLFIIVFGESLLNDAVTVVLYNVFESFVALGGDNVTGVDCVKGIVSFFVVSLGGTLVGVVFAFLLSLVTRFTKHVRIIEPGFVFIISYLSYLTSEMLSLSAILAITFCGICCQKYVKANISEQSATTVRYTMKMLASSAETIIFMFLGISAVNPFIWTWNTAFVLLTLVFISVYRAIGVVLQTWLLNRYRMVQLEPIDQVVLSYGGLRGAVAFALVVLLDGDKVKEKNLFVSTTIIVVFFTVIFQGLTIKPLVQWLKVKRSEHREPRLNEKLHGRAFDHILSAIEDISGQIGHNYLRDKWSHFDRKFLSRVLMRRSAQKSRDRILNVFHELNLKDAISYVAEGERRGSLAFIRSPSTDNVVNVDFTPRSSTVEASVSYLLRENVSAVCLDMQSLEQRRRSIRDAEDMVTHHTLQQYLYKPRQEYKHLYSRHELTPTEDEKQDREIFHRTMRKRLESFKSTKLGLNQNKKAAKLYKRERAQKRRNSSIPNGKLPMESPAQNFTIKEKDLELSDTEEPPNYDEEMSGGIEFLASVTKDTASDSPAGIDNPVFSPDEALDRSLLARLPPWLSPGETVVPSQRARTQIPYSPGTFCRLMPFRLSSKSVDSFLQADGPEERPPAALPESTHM
# Assay: Recovery of intracellular pH (pHi) after acidification in LAP1 cells stably expressing NHE3 (BCECF fluorescence, FLIPR)
# Assay type: cell-based
# Conditions: LAP1 cells stably expressing NHE3; pH recovery after acidification; range 1 is % inhibition at 10 μM; read-out: Activity range (inhibitory effect on NHE3)
Structure (SMILES),IC50 [nM],inhibition at 10 µM [%]
"CS(=O)(=O)c1ccc(O[C@H]2c3cc(Cl)cc(Cl)c3C[C@@H]2N2CCNC(C(F)(F)F)C2)cc1 (mixture of isomers) [Example 301, 1-[trans-(1S,2S)-4,6-dichloro-1-(4-methanesulfonylphenoxy)indan-2-yl]-3-trifluoromethylpiperazine]",–,20 to 50
"N[C@@H]1CCCN([C@H]2CCc3ccccc3[C@@H]2Oc2cccc(Cl)c2)C1 (racemic) [Example 55, (R)-1-[rac-trans-(1,2)-1-(3-chlorophenoxy)-1,2,3,4-tetrahydronaphthalen-2-yl]piperidin-3-ylamine]",–,20 to 50
"Fc1ccc(O[C@H]2c3ccccc3C[C@@H]2N2CCCC2)c(-c2ccn[nH]2)c1 [Example 575, 5-[5-fluoro-2-(trans-(1S,2S)-2-pyrrolidin-1-ylindan-1-yloxy)phenyl]-1H-pyrazole]",–,20 to 50
"N[C@@H]1CCCN([C@H]2CCc3ccccc3[C@@H]2Oc2ccc(N3CCNCC3)cc2)C1 (racemic) [Example 75, (R)-1-[rac-trans-(1,2)-1-(4-piperazin-1-ylphenoxy)-1,2,3,4-tetrahydronaphthalen-2-yl]piperidin-3-ylamine]",–,20 to 50
"Cc1ccc(O[C@H]2c3ccccc3C[C@@H]2N2CCCC2)c(-c2c(C)noc2C)c1 [Example 408, 3,5-dimethyl-4-[5-methyl-2-(trans-(1S,2S)-2-pyrrolidin-1-ylindan-1-yloxy)phenyl]isoxazole]",–,20 to 50
"N#Cc1ccc(O[C@H]2c3ccccc3CC[C@@H]2N2CCOCC2)cc1F (racemic) [Example 396, 2-fluoro-4-(rac-trans-(1,2)-2-morpholin-4-yl-1,2,3,4-tetrahydronaphthalen-1-yloxy)benzonitrile]",–,20 to 50
"CN1CCN(c2cc(O[C@H]3c4cc(Cl)cc(Cl)c4C[C@@H]3N3CC[C@@H](O)C3)ccc2Cl)C1=O [Example 311, 1-{2-chloro-5-[(1S,2S)-4,6-dichloro-2-((R)-3-hydroxypyrrolidin-1-yl)indan-1-yloxy]phenyl}-3-methylimidazolidin-2-one]",–,20 to 50
"CS(=O)(=O)c1ccccc1O[C@H]1c2ccccc2CC[C@@H]1N1CCC[C@@H](N)C1 (racemic) [Example 45, (R)-1-[rac-trans-(1,2)-1-(2-methanesulfonylphenoxy)-1,2,3,4-tetrahydronaphthalen-2-yl]piperidin-3-ylamine]",–,20 to 50
"N[C@@H]1CCCN([C@H]2CCc3ccccc3[C@@H]2Oc2cnc3ccccc3c2)C1 (racemic) [Example 87, (R)-1-[rac-trans-(1,2)-1-(quinolin-3-yloxy)-1,2,3,4-tetrahydronaphthalen-2-yl]piperidin-3-ylamine]",–,20 to 50
"N#Cc1ccc(O[C@H]2c3ccccc3CC[C@@H]2N2CCC[C@@H](N)C2)c(F)c1 (racemic) [Example 515, 4-[rac-trans-(1,2)-2-((R)-3-aminopiperidin-1-yl)-1,2,3,4-tetrahydronaphthalen-1-yloxy]-3-fluorobenzonitrile]",1000 to 10000,–
"CCc1nc(C)cn1-c1ccc(O[C@H]2c3cc(Cl)cc(Cl)c3C[C@@H]2N2CC[C@@H](O)C2)cc1 [Example 712, (R)-1-{trans-(1S,2S)-4,6-Dichloro-1-[4-(2-ethyl-4-methyl-imidazol-1-yl)-phenoxy]-indan-2-yl}-pyrrolidin-3-ol]",1000 to 10000,–
"NCC1CCN([C@@H]2Cc3ccccc3[C@H]2Oc2cccc(NC(N)=O)c2)CC1 (racemic) [Example 235, {3-[rac-trans-(1,2)-2-(4-aminomethylpiperidin-1-yl)indan-1-yloxy]phenyl}urea]",1000 to 10000,–
"Cc1cc(O[C@H]2c3ccccc3C[C@@H]2N2CCCC2)ccc1S(C)(=O)=O (racemic) [Example 271, 1-[rac-trans-(1,2)-1-(4-methanesulfonyl-3-methylphenoxy)indan-2-yl]pyrrolidine]",1000 to 10000,–
"NCC1CCN([C@@H]2Cc3ccccc3[C@H]2Oc2ccc(NC(=O)OCc3ccccc3)cc2)C1 (mixture of isomers) [Example 240, {4-[rac-trans-(1,2)-2-(3-aminomethylpyrrolidin-1-yl)indan-1-yloxy]phenyl}carbamic acid benzyl ester]",1000 to 10000,–
"Brc1ccccc1O[C@@H]1c2ccccc2C[C@H]1N1C[C@H]2CNC[C@H]2C1 (racemic) [Example 11, 2-[rac-trans-(1,2)-1-(2-bromophenoxy)indan-2-yl]octahydropyrrolo[3,4-c]pyrrole]",1000 to 10000,–

# Results, then the compound that gave them:
IC50 [nM],inhibition at 10 µM [%],Structure (SMILES)
1000 to 10000,–,"Cc1nnc(C(C)C)n1-c1ccc(O[C@H]2c3cc(Cl)cc(F)c3C[C@@H]2N2CC[C@@H](O)C2)cc1 [Example 721, (R)-1-{trans-(1S,2S)-6-Chloro-4-fluoro-1-[4-(3-isopropyl-5-methyl-[1,2,4]triazol-4-yl)-phenoxy]-indan-2-yl}-pyrrolidin-3-ol]"
1000 to 10000,–,"CC(=O)Nc1cccc(O[C@@H]2c3ccccc3C[C@H]2N2CCC(CN)CC2)c1 (racemic) [Example 688, N-{3-[rac-trans-(1,2)-2-(4-aminomethylpiperidin-1-yl)indan-1-yloxy]phenyl}acetamide]"
1000 to 10000,–,"O=S1(=O)CCCN1c1cccc(O[C@H]2c3cc(Cl)cc(Cl)c3C[C@@H]2N2CC[C@@H](O)C2)c1 [Example 123, (R)-1-{trans-(1S,2S)-4,6-dichloro-1-[3-(1,1-dioxo-1lambda6-isothiazolidin-2-yl)phenoxy]indan-2-yl}pyrrolidin-3-ol]"
< 1000,–,"CS(=O)(=O)c1ccc(O[C@H]2c3c(ccc(Cl)c3Cl)C[C@@H]2N2CCCNCC2)cc1 (racemic) [Example 288, 1-[rac-trans-(1,2)-6,7-dichloro-1-(4-methanesulfonylphenoxy)indan-2-yl]-[1,4]diazepane]"
1000 to 10000,–,"N#Cc1cc(Cl)ccc1O[C@@H]1c2ccccc2C[C@H]1N1CCC(CN)CC1 (racemic) [Example 376, 2-[rac-trans-(1,2)-2-(4-aminomethylpiperidin-1-yl)indan-1-yloxy]-5-chlorobenzonitrile]"
1000 to 10000,–,"Cc1c(Cl)cccc1O[C@@H]1c2ccccc2C[C@H]1N1CCC(CN)C1 (mixture of isomers) [Example 611, C-{1-[rac-trans-(1,2)-1-(3-chloro-2-methylphenoxy)indan-2-yl]pyrrolidin-3-yl}methylamine]"
< 1000,–,"Cn1ccn(-c2ccc(Cl)c(O[C@H]3c4cc(Cl)cc(Cl)c4C[C@@H]3N3CC[C@@H](O)C3)c2)c1=O [Example 335, 1-{4-chloro-3-[(1S,2S)-4,6-dichloro-2-((R)-3-hydroxypyrrolidin-1-yl)indan-1-yloxy]phenyl}-3-methyl-1,3-dihydroimidazol-2-one]"
< 1000,–,"Cc1nnc(C)n1-c1ccc(O[C@H]2c3cc(Cl)ccc3C[C@@H]2N2CCCC2)c(Cl)c1 [Example 492, 4-[3-chloro-4-(trans-(1S,2S)-6-chloro-2-pyrrolidin-1-ylindan-1-yloxy)phenyl]-3,5-dimethyl-4H-[1,2,4]triazole]"
1000 to 10000,–,"CS(=O)(=O)c1ccc(O[C@H]2c3cc(Cl)cc(Cl)c3C[C@@H]2NC2CCCC2)cc1 [Example 747, Cyclopentyl-[trans-(1S,2S)-4,6-dichloro-1-(4-methanesulfonyl-phenoxy)-indan-2-yl]-amine]"
1000 to 10000,–,"Cn1ccn(-c2ccc(Cl)c(O[C@H]3c4cc(F)cc(F)c4C[C@@H]3N3CC[C@@H](O)C3)c2)c1=O [Example 338, 1-{4-chloro-3-[(1S,2S)-4,6-difluoro-2-((R)-3-hydroxypyrrolidin-1-yl)indan-1-yloxy]phenyl}-3-methyl-1,3-dihydroimidazol-2-one]"
< 1000,–,"CCc1ccc(O[C@@H]2c3ccccc3C[C@H]2N2C[C@H]3CNC[C@H]3C2)c(C(C)(C)C)c1 (racemic) [Example 12, 2-[rac-trans-(1,2)-1-(2-tert-butyl-4-ethylphenoxy)indan-2-yl]octahydropyrrolo[3,4-c]pyrrole]"
1000 to 10000,–,"Cc1nn(C)c(C)c1-c1ccc(O[C@H]2c3cc(Cl)cc(Cl)c3C[C@@H]2N2CC[C@@H](O)C2)cc1 [Example 124, (R)-1-{trans-(1S,2S)-4,6-dichloro-1-[4-(1,3,5-trimethyl-1H-pyrazol-4-yl)phenoxy]indan-2-yl}pyrrolidin-3-ol]"
< 1000,–,"O=C1CCCN1c1ccc(O[C@H]2c3cc(Cl)cc(Cl)c3C[C@@H]2N2CC[C@@H](O)C2)c(Cl)c1 [Example 321, 1-{3-chloro-4-[(1S,2S)-4,6-dichloro-2-((R)-3-hydroxypyrrolidin-1-yl)indan-1-yloxy]phenyl}pyrrolidin-2-one]"
< 1000,–,"NS(=O)(=O)c1ccc(O[C@@H]2c3ccccc3C[C@H]2NC2CCC2)c(F)c1 (racemic) [Example 709, 4-(rac-trans-(1,2)-2-Cyclobutylamino-indan-1-yloxy)-3-fluoro-benzenesulfonamide]"
< 1000,–,"CN1C[C@@H]2CN([C@H]3Cc4c(Cl)cc(Cl)cc4[C@@H]3Oc3ccc(S(C)(=O)=O)cc3)C[C@@H]2C1 [Example 8, 2-[trans-(1S,2S)-4,6-dichloro-1-(4-methanesulfonylphenoxy)indan-2-yl]-5-methyloctahydropyrrolo[3,4-c]pyrrole]"
